In US20150306107A1, “SAA Derivative Compound Restores eNOS And Inhibits Oxidative Stress-Induced A Diseases In Hypoxia” (JANSFAT BIOTECHNOLOGY CO., LTD., priority 2014, published 2015):

Assays:
VEGF = assay: Western blotting of VEGF expression in isolated rat pulmonary artery ring, short-term (acute) hypoxia; format: cell-based; conditions: isolated pulmonary artery
Description: (§1) In our in vitro short-term experiment, isolated rat pulmonary artery was grown under normoxia (20% O2) or hypoxia (1% O2) at 37° C. for 24 hrs as was previously done (Wu BN, et al. Int J Immunopathol Pharmacol 24:925, 2011). The heart weight and body weight ratio (HW/BW) of the rats treated with one of SPAAX-1, SPAAX-1 RX complex, Sildenafil or Sildenafil RX complex each measured on the 21st hypoxic day. All animal care and the experimental protocols of this study were approved by the Animal Care and Use Committee of the Kaohsiung Medical University. Male Wistar rats (200-250 g), provided by the National Laboratory Animal Breeding and Research Center (Taipei, Taiwan), were housed under constant temperature and controlled illumination. Food and water were available ad libitum.
(§2) Whole right lung tissues of hypoxia-treated and untreated rats were isolated and cut into small strips and placed into an extraction buffer (Tris 10 mM, pH 7.0, NaCl 140 mM, PMSF 2 mM, DTT 5 mM, NP-40 0.5%, pepstatin A 0.05 mM and leupeptin 0.2 mM) for protein extraction, and then centrifuged at 12,500 g for 30 min. To measure the expression levels of the proteins, the total proteins were extracted and Western blotting analysis was performed as described previously (Bivalacqua T J, et al., 2013, TJ PLoSONE 8: e68028. doi:10.1371/journal. pone.0068028). Briefly, the protein extract was boiled to a ratio of 4:1 with a sample buffer (Tris 100 mM, pH 6.8, glycerol 20%, SDS 4% and bromophenol blue 0.2%). Electrophoresis was performed using 10% SDS-polyacrylamide gel (2 hr, 100 V, 40 mA, […] protein per lane). Separated proteins were transferred to PVDF membranes treated with 5% fat-free milk powder to block the nonspecific IgGs (90 min, 100 V) and incubated for one hour with a specific protein antibody. The blot was then incubated with anti-mouse or anti-goat IgG linked to alkaline phosphatase (1:1000) for 1 hr. Immunoreactive bands were visualized using horseradish peroxidase-conjugated secondary antibodies and subsequent electrochemiluminescence (ECL) detection (GE Healthcare Bio-Sciences Corp., Piscataway, N.J., U.S.A.). Mouse or rabbit monoclonal antibody of eNOS (Upstate, N.Y., U.S.A.), sGCα (Sigma-Adrich, CA, U.S.A., sGCβ (Santa Cruz, Calif., U.S.A.), PDE-5A (BD Tansduction, San Jose, Calif., U.S.A.), PKG (Calbiochem, San Diego, Calif., U.S.A.) ROCKII (Upstate, N.Y., U.S.A.), RhoA (Santa Cruze, Calif., U.S.A.) and the loading control protein β-actin (Sigma-Adrich, MO, U.S.A.) were used in our Western blot analysis.
(§3) The Western blotting analysis measurements were performed as per lung tissue.

hypoxic rats [1] = assay: Right ventricular hypertrophy (RV/LV+S, right heart index) after long-term hypoxia; format: in vivo, rat
Description: The right lobes of the rat lungs and heart of six rats from each group were cut and soaked in formalin, dehydrated through graded alcohols, and embedded in paraffin wax. The lung tissue specimens fixed with formalin (4%) were embedded in paraffin for one hour at 4° C., cut into 4-μm-thick sections, and subjected to H&E staining before examination by light microscope. In our histopathological study, we measured the thickening of the medial wall of the small intrapulmonary arteries under an Eclipse TE2000-S (Nikon) microscope. In the heart tissues, the 4-μm-thick paraffin sections were cut from paraffin-embedded tissue blocks and de-paraffinized by immersion in xylene and rehydrated as previously described (Bivalacqua T J, et al., PLoSONE 8: e68028. doi:10.1371/journal. pone.0068028). The slices were then dyed with H&E. After gently rinsing with water, each slide was dehydrated through graded alcohols and finally soaked in xylene twice. The relative cardiac weight of right ventricle (RV)/[left ventricle (LV)+intraventricular septum (S)] ratio (i.e. right heart index) was calculated using right ventricle/left ventricle+septum (RV/LV+S). Measurements were obtained with Histolab software (Microvision Instruments, Evry, France).

NOx in lung tissue = conditions: 21 days of hypoxia; control group 100%, hypoxia 59.8±3.7%
Description: All the rats were maintained on a 12-h light/12-hr dark cycle at 25±1° C. and were provided with food and water ad libitum. The normoxia group was housed in standard normoxic conditions and the other three treated groups were continuously housed in a hypoxic chamber (10% O2) for 21 days, except for a 30-min interval each day when the chamber was cleaned (FIG. 2). During which, a normoxic gas mixture was prepared from compressed air.
Production of NO, represented by its metabolite nitrate+nitrite (NOx), in lung tissue extracts was determined using the Griess method (Chung H H et al, Br J Pharmacol 160: 971, 2010; Vascular Pharmacology 53: 239, 2010). The three step Greiss test converts nitrate (NO3^−) into nitrite (NO2^−), resulting in a total NO2^− concentration from a standard calibration curve. The lung tissue extracts were homogenized, washed with PBS and incubated in a lysis buffer in addition to a protease inhibitor cocktail (Sigma, St. Louis, Mo.) to obtain the extracts of lung proteins. […] The samples were then incubated (25° C, 10 min) with Griess reagent [N-(1-naphthyl)-ethylenediamine: 0.2% (w/v), sulphanilamide: 2% (w/v), solubilized in double-distilled water: 95% and phosphoric acid: 5% (v/v)] and the absorbance measured at 540 nm. […]

hypoxic rats [2] = assay: Hemodynamics of rats with hypoxic PAH, chronic hypoxia 21 days; format: in vivo, rat; conditions: 5 mg/kg/day, p.o.
From the text: Int J Immunopathol Pharmacol 24:925, 2011). The heart weight and body weight ratio (HW/BW) of the rats treated with one of […] complex, Sildenafil or Sildenafil RX complex each measured on the 21st hypoxic day. All animal care and the experimental protocols of this study were approved by the Animal Care and Use Committee of the Kaohsiung Medical University. Male Wistar rats (200-250 g), provided by the National Laboratory Animal Breeding and Research Center (Taipei, Taiwan), were housed under constant temperature and controlled illumination. Food and water were available ad libitum. Normoxic rats were housed in room temperature air at normal atmospheric pressure (760 mm Hg). […] After completion of the exposure, tissues were prepared as indicated for contraction measurements, Western blot analysis, RNA extraction, or morphological analysis. […] Their breathing was normal and their body temperature was maintained at 37° C. […] The animals were then sacrificed by the administration of an overdose of urethane.

PKG = assay: Western blotting of PKG in lung tissue after long-term hypoxia; format: in vivo, rat; conditions: hypoxia 21 days
Description: as §2, with “Mouse or rabbit monoclonal antibody of eNOS (Upstate, N.Y., U.S.A.), sGCα (Sigma-Adrich, CA, U.S.A., sGCβ (Santa Cruz, Calif., U.S.A.), PDE-5A (BD Tansduction, San Jose, Calif., U.S.A.), PKG (Calbiochem, San Diego, Calif., U.S.A.) ROCKII (Upstate, N.Y., U.S.A.), RhoA (Santa Cruze, Calif., U.S.A.) and the loading control protein β-actin (Sigma-Adrich, MO, U.S.A.) were used in our Western blot analysis.” left out

ROCK II = assay: Western blotting of ROCK II expression in isolated rat pulmonary artery ring, short-term (acute) hypoxia or normoxia; format: cell-based
Description: as §1, §2, §3

[3] = system: reactive oxygen species (ROS) of lung tissues; conditions: long-term hypoxia
Description: In our in vivo hypoxic experiments, 10-week old male Wistar rats were equally divided into four groups: a normoxia group, a hypoxia group, a hypoxia+SPAAX-1 or SPAAX-1 RX complex group, and a hypoxia+Sildenafil or Sildenafil RX complex group. All the rats were maintained on a 12-h light/12-hr dark cycle at 25±1° C. and were provided with food and water ad libitum. The normoxia group was housed in standard normoxic conditions and the other three treated groups were continuously housed in a hypoxic chamber (10% O2) for 21 days, except for a 30-min interval each day when the chamber was cleaned (FIG. 2). During which, a normoxic gas mixture was prepared from compressed air.
Pulmonary ROS was measured using 2′-7′-dichloro-fluorescein (H2DCF-DA, Molecular Probe, USA). Briefly, 10 μl of lung tissue extract was diluted 100-fold with cold PBS and labelled with 5 μmol/L 2′-7′-dichlorofluorescein, and the mixture was incubated at 37° C. for 30 minutes and put in a centrifuge (1000 rpm) for 5 min. Fluorescence was measured at 485 nm excitation and 530 nm emission to determine the concentration of H2O2 (FLUOstar Galaxy, Germany).

sGCα1 = assay: Western blotting of sGCα1 expression in isolated pulmonary artery, short-term hypoxia; format: cell-based, rat
Description: as §1
Whole right lung tissues of hypoxia-treated and untreated rats were isolated and cut into small strips and placed into an extraction buffer (Tris 10 mM, pH 7.0, NaCl 140 mM, PMSF 2 mM, DTT 5 mM, NP-40 0.5%, pepstatin A 0.05 mM and leupeptin 0.2 mM) for protein extraction, and then centrifuged at 12,500 g for 30 min. To measure the expression levels of the proteins, the total proteins were extracted and Western blotting analysis was performed as described previously (Bivalacqua T J, et al., 2013, TJ PLoSONE 8: e68028. doi:10.1371/journal. pone.0068028). […]

SMILES: Cn1c(=O)c2c(ncn2CCN2CCN(c3ccccc3Cl)CC2)n(C)c1=O.O=C1O[C@H]([C@@H](O)CO)C(O)=C1O [SPAAX-1 ascorbate complex, 7-[2-[4-(2-chlorobenzene)piperazinyl]ethyl]-1,3-dimethylxanthine.ascorbic acid]
- VEGF in acute hypoxia (VEGF): inhibited
- thickness of Right ventricular (hypoxic rats [1]; compared to the hypoxia state): reduced
- right heart index, RV/(LV+S) weight ratio (hypoxic rats [1]; hypoxia 21 days, relative to normoxia rats, hypoxia 184.6±0.7%): 117.4±2.6%
- levels of NOx in lung tissue (NOx in lung tissue): 86.3±17.3%
- BW (body weight) (hypoxic rats [2]): 28.8 ± 7.9 g
- MPAP (mean pulmonary arterial pressure) (hypoxic rats [2]; normoxia 12.9 ± 0.9, hypoxia 26.5 ± 0.6): 16.9±1.1 mmHg
- PKG expression in lung tissue (PKG): 85.0±12.9%
- expression of ROCK II in isolated hypoxic pulmonary artery (ROCK II; hypoxia for 24 hrs, versus control level in normoxia, hypoxia 180±10.2%): 140±9.0%
- Expression of ROCK II in isolated pulmonary artery ring (ROCK II; normoxia for 24 hrs, 10 μm, versus non-treated controls): 48.2±5.5%
- hypoxia-induced increase of dichlorofluorescein (ROS of lung tissues) [3]: reduced
- SGC-a in hypoxia (sGCα1): neither SPAAX-1 ascorbate complex nor Sildenafil ascorbate complex significantly affected
